Laboratory results reported in patent US20240199649A1 (Biosplice Therapeutics, Inc., priority 2022, published 2024).

Target: recombinant DYRK1A kinase (Homo sapiens (Human), UniProt Q13627)
Assay: DYRK1A kinase assay (Ser/Thr 18 peptide Z-lyte FRET assay)
Assay type: biochemical
Conditions: DYRK1A 0.25 μg/mL, ATP 15 μM, Ser/Thr peptide 18 4 μM; one hour at room temperature; 11-point dose-response, duplicate
Method: Representative compounds were screened using the assay procedure for DYRK1A kinase activity as described below.
Each compound was dissolved in DMSO as a 10 mM stock and used to prepare compound source plates.
This is a non-radioactive assay using fluorescence resonance energy transfer (FRET) between coumarin and fluorescein to detect kinase activity which is represented as a ratio of coumarin emission/fluorescein emission.
The mixture was allowed to incubate with the representative compounds for one hour at room temperature. All reactions were performed in duplicate. Unphosphorylated (“0% Control”) and phosphorylated (“100% control”) forms of Ser/Thr 18 served as control reactions. Additionally, an 11-point dose-response curve of Staurosporine (1 uM top) was run to serve as a positive compound control.
After incubation, Development Reagent A was diluted in Development Buffer then added to the reaction and allowed to further incubate for one hour at room temperature.
Dose-response curves were generated, and inhibitory concentration (IC50) values were calculated using non-linear regression curve fit in the Dotmatics' Studies Software (Bishops Stortford, UK).

IC50 [nM]	SMILES
0.5	CNc1nc(N[C@H]2CC[C@@H](OCCO)CC2)nn2ccc(-c3ccc4nc(C)n(CC(F)F)c4n3)c12 [Compound 184, 2-((cis-4-((5-(3-(2,2-Difluoroethyl)-2-methyl-3H-imidazo[4,5-b]pyridin-5-yl)-4-(methylamino)pyrrolo[2,1-f][1,2,4]triazin-2-yl)amino)cyclohexyl)oxy)ethan-1-ol]
2.4	CNc1nc(N[C@H]2CC[C@@H](OCCOC)CC2)nn2ccc(-c3ccc4nc(C)n(CC(F)F)c4n3)c12 [Compound 185, 5-(3-(2,2-Difluoroethyl)-2-methyl-3H-imidazo[4,5-b]pyridin-5-yl)-N^2-(cis-4-(2-methoxyethoxy)cyclohexyl)-N^4-methylpyrrolo[2,1-f][1,2,4]triazine-2,4-diamine]
1.5	CNc1nc(N[C@H]2CC[C@@H](NC(C)=O)CC2)nn2ccc(-c3ccc4nc(C)n(CC(F)F)c4n3)c12 [Compound 186, N-(cis-4-((5-(3-(2,2-difluoroethyl)-2-methyl-3H-imidazo[4,5-b]pyridin-5-yl)-4-(methylamino)pyrrolo[2,1-f][1,2,4]triazin-2-yl)amino)cyclohexyl)acetamide]
1.1	CNc1nc(N[C@H]2CC[C@H](NC(C)=O)CC2)nn2ccc(-c3ccc4nc(C)n(CC(F)F)c4n3)c12 [Compound 187, N-(trans-4-((5-(3-(2,2-Difluoroethyl)-2-methyl-3H-imidazo[4,5-b]pyridin-5-yl)-4-(methylamino)pyrrolo[2,1-f][1,2,4]triazin-2-yl)amino)cyclohexyl)acetamide]
2.2	CNc1nc(N[C@H]2CC[C@@](C)(O)CC2)nn2ccc(-c3ccc4nc(C)n(CC(F)F)c4n3)c12 [Compound 188, Cis-4-((5-(3-(2,2-Difluoroethyl)-2-methyl-3H-imidazo[4,5-b]pyridin-5-yl)-4-(methylamino)pyrrolo[2,1-f][1,2,4]triazin-2-yl)amino)-1-methylcyclohexan-1-ol]
1.3	CNc1nc(N[C@H]2CC[C@](C)(O)CC2)nn2ccc(-c3ccc4nc(C)n(CC(F)F)c4n3)c12 [Compound 189, trans-4-((5-(3-(2,2-Difluoroethyl)-2-methyl-3H-imidazo[4,5-b]pyridin-5-yl)-4-(methylamino)pyrrolo[2,1-f][1,2,4]triazin-2-yl)amino)-1-methylcyclohexan-1-ol]
595	CNc1nc(NC23CC4CC(CC(C4)C2)C3)nn2ccc(-c3ccc4nc(C)n(CC(F)F)c4n3)c12 [Compound 196, N^2-(Adamantan-1-yl)-5-(3-(2,2-difluoroethyl)-2-methyl-3H-imidazo[4,5-b]pyridin-5-yl)-N^4-methylpyrrolo[2,1-f][1,2,4]triazine-2,4-diamine]
2	CNc1nc(N[C@H]2CN(C)C[C@H]2F)nn2ccc(-c3ccc4nc(C)n(CC(F)F)c4n3)c12 [Compound 197, 5-(3-(2,2-Difluoroethyl)-2-methyl-3H-imidazo[4,5-b]pyridin-5-yl)-N^2-((3S,4R)-4-fluoro-1-methylpyrrolidin-3-yl)-N^4-methylpyrrolo[2,1-f][1,2,4]triazine-2,4-diamine]
0.6	CNc1nc(N[C@@H]2CN(C)C[C@@H]2F)nn2ccc(-c3ccc4nc(C)n(CC(F)F)c4n3)c12 [Compound 198, 5-(3-(2,2-Difluoroethyl)-2-methyl-3H-imidazo[4,5-b]pyridin-5-yl)-N^2-((3R,4S)-4-fluoro-1-methylpyrrolidin-3-yl)-N^4-methylpyrrolo[2,1-f][1,2,4]triazine-2,4-diamine]
2.4	CNc1nc(N[C@H]2CN(C3COC3)C[C@H]2F)nn2ccc(-c3ccc4nc(C)n(CC(F)F)c4n3)c12 [Compound 199, 5-(3-(2,2-Difluoroethyl)-2-methyl-3H-imidazo[4,5-b]pyridin-5-yl)-N^2-((3S,4R)-4-fluoro-1-(oxetan-3-yl)pyrrolidin-3-yl)-N^4-methylpyrrolo[2,1-f][1,2,4]triazine-2,4-diamine]
1.3	CNc1nc(N[C@@H]2CN(C3COC3)C[C@@H]2F)nn2ccc(-c3ccc4nc(C)n(CC(F)F)c4n3)c12 [Compound 200, 5-(3-(2,2-Difluoroethyl)-2-methyl-3H-imidazo[4,5-b]pyridin-5-yl)-N^2-((3R,4S)-4-fluoro-1-(oxetan-3-yl)pyrrolidin-3-yl)-N^4-methylpyrrolo[2,1-f][1,2,4]triazine-2,4-diamine]
1.8	CNc1nc(NC2CCN(C(C)=O)CC2)nn2ccc(-c3ccc4nc(C)n(CC(F)F)c4n3)c12 [Compound 202, 1-(4-((5-(3-(2,2-Difluoroethyl)-2-methyl-3H-imidazo[4,5-b]pyridin-5-yl)-4-(methylamino)pyrrolo[2,1-f][1,2,4]triazin-2-yl)amino)piperidin-1-yl)ethan-1-one]
2	CNc1nc(NC2CCN(C3COC3)CC2)nn2ccc(-c3ccc4nc(C)n(CC(F)F)c4n3)c12 [Compound 203, 5-(3-(2,2-Difluoroethyl)-2-methyl-3H-imidazo[4,5-b]pyridin-5-yl)-N^4-methyl-N^2-(1-(oxetan-3-yl)piperidin-4-yl)pyrrolo[2,1-f][1,2,4]triazine-2,4-diamine]
0.8	CNc1nc(N[C@H]2CCN(C)C[C@H]2F)nn2ccc(-c3ccc4nc(C)n(CC(F)F)c4n3)c12 [Compound 204, 5-(3-(2,2-Difluoroethyl)-2-methyl-3H-imidazo[4,5-b]pyridin-5-yl)-N^2-((3R,4S)-3-fluoro-1-methylpiperidin-4-yl)-N^4-methylpyrrolo[2,1-f][1,2,4]triazine-2,4-diamine]
1	CNc1nc(N[C@@H]2CCN(C)C[C@@H]2F)nn2ccc(-c3ccc4nc(C)n(CC(F)F)c4n3)c12 [Compound 205, 5-(3-(2,2-Difluoroethyl)-2-methyl-3H-imidazo[4,5-b]pyridin-5-yl)-N^2-((3S,4R)-3-fluoro-1-methylpiperidin-4-yl)-N^4-methylpyrrolo[2,1-f][1,2,4]triazine-2,4-diamine]
1.1	CNc1nc(N[C@@H]2CCN(C)CC2(F)F)nn2ccc(-c3ccc4nc(C)n(CC(F)F)c4n3)c12 [Compound 214, (R)—N^2-(3,3-Difluoro-1-methylpiperidin-4-yl)-5-(3-(2,2-difluoroethyl)-2-methyl-3H-imidazo[4,5-b]pyridin-5-yl)-N^4-methylpyrrolo[2,1-f][1,2,4]triazine-2,4-diamine]
4.4	CNc1nc(N[C@H]2CCN(C)CC2(F)F)nn2ccc(-c3ccc4nc(C)n(CC(F)F)c4n3)c12 [Compound 215, (S)—N^2-(3,3-Difluoro-1-methylpiperidin-4-yl)-5-(3-(2,2-difluoroethyl)-2-methyl-3H-imidazo[4,5-b]pyridin-5-yl)-N^4-methylpyrrolo[2,1-f][1,2,4]triazine-2,4-diamine]
0.8	CNc1nc(N[C@@H]2CCN(C3COC3)CC2(F)F)nn2ccc(-c3ccc4nc(C)n(CC(F)F)c4n3)c12 [Compound 216, (R)—N^2-(3,3-Difluoro-1-(oxetan-3-yl)piperidin-4-yl)-5-(3-(2,2-difluoroethyl)-2-methyl-3H-imidazo[4,5-b]pyridin-5-yl)-N^4-methylpyrrolo[2,1-f][1,2,4]triazine-2,4-diamine]

SMILES	IC50 [nM]
CNc1nc(NC2CCN(CC(F)F)CC2)nn2ccc(-c3ccc4nc(C)n(CC(F)F)c4n3)c12 [Compound 201, 5-(3-(2,2-Difluoroethyl)-2-methyl-3H-imidazo[4,5-b]pyridin-5-yl)-N^2-(1-(2,2-difluoroethyl)piperidin-4-yl)-N^4-methylpyrrolo[2,1-f][1,2,4]triazine-2,4-diamine]	0.7
